Experimental findings from PMC6449406, “Classification of the human phox homology (PX) domains based on their phosphoinositide binding specificities” (Nature Communications, 2019) are described below.

The target of data set [1] is T1, SNX25 PX domain (Homo sapiens, UniProt Q9H3E2).
T1 construct: PX domain only, 15N-labelled, from GST fusion in E. coli
T1 sequence (Q9H3E2 506-628): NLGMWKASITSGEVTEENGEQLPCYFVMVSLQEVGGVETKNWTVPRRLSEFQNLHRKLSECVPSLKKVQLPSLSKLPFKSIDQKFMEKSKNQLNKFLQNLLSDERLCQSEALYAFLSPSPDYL
The data set is described as follows: 1H-15N HSQC NMR titration. The data set is classed as binding. The conditions noted are these: pH 7.0, 100 mM NaCl, 298 K; secondary site (Lys734).

Data set [2] deals with T1, SNX25 PX domain. The data set is described as follows: biochemical. Also noted: ITC, soluble phosphoinositide headgroup analogue titrated into purified PX domain, 1:1 fit. The conditions noted are these: ITC, 20 uM PX domain in cell. From the text: (§1) We next used isothermal titration calorimetry (ITC) to measure the binding of selected PX domains to soluble phosphoinositide headgroup analogues (Supplementary Figures 2, 3; Supplementary Table 4). These experiments quantitatively supported the results of the liposome pelleting assays for all of the PX domains tested. As an orthogonal method of quantitation, we used biolayer interferometry (BLItz) to measure the interactions of PX proteins with different phosphoinositide-containing membranes (Supplementary Figures 4, 5; Supplementary Table 5). In these experiments, liposomes containing a small amount of biotinylated lipids were coupled to streptavidin sensors, and dipped into solutions containing the PX domains at a single concentration of 20 μM. Again, the results of these liposome-binding experiments using BLItz correlated well with both ITC and liposome pelleting assays. The dissociation constants derived from BLItz analyses were generally in agreement with those from ITC and correlated well with the qualitative interactions observed in pelleting assays. As summarized in Supplementary Table 1, many previous reports have described interactions of human PX domain proteins with a variety of different phosphoinositide lipids, as well as other lipids such as phosphatidylserine (PS) and phosphatidic acid (PA) that may promote recruitment to various cellular organelles and membrane domains. Our aim was to perform parallel comparisons of as many human PX domains as possible, using qualitative and quantitative approaches to measure binding to both membrane mimetics and soluble phosphoinositide headgroups. […] Samples were subjected to ultracentrifugation followed by SDS-PAGE and Coomassie staining of the unbound supernatant (S) and bound pellet (P) fractions. b Water-soluble PtdIns3P and PtdIns(3,4)P2 headgroup analogues (500 μM) were titrated into the SGK3 PX domain (20 μM) and measured by ITC. […]

The target in a further data set is T2, SNX2 (Homo sapiens, UniProt O60749).
T2 construct: PX domain only, N-terminal GST removed by thrombin, E. coli
T2 sequence (O60749 140-269 limits assumed): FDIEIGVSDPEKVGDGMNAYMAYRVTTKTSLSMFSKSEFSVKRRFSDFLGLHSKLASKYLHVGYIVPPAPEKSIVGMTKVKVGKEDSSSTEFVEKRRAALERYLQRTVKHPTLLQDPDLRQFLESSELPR
Briefly: biochemical. Also noted: ITC, soluble phosphoinositide headgroup analogue titrated into purified PX domain, 1:1 fit. The conditions noted are these: ITC, 20 uM PX domain in cell.
Description: as §1

The target in the next data set is T3, SNX1 (Homo sapiens, UniProt Q13596).
T3 construct: PX domain only, N-terminal GST removed by thrombin, E. coli
The data set is described as follows: biochemical. More on the design: ITC, soluble phosphoinositide headgroup analogue titrated into purified PX domain, 1:1 fit. The following applies: ITC, 20 uM PX domain in cell.
Description: as §1

Another data set addresses T4, SNX23 (Homo sapiens, UniProt Q96L93).
T4 construct: gene KIF16B; PX domain, GST removed
T4 sequence (Q96L93 1-1317): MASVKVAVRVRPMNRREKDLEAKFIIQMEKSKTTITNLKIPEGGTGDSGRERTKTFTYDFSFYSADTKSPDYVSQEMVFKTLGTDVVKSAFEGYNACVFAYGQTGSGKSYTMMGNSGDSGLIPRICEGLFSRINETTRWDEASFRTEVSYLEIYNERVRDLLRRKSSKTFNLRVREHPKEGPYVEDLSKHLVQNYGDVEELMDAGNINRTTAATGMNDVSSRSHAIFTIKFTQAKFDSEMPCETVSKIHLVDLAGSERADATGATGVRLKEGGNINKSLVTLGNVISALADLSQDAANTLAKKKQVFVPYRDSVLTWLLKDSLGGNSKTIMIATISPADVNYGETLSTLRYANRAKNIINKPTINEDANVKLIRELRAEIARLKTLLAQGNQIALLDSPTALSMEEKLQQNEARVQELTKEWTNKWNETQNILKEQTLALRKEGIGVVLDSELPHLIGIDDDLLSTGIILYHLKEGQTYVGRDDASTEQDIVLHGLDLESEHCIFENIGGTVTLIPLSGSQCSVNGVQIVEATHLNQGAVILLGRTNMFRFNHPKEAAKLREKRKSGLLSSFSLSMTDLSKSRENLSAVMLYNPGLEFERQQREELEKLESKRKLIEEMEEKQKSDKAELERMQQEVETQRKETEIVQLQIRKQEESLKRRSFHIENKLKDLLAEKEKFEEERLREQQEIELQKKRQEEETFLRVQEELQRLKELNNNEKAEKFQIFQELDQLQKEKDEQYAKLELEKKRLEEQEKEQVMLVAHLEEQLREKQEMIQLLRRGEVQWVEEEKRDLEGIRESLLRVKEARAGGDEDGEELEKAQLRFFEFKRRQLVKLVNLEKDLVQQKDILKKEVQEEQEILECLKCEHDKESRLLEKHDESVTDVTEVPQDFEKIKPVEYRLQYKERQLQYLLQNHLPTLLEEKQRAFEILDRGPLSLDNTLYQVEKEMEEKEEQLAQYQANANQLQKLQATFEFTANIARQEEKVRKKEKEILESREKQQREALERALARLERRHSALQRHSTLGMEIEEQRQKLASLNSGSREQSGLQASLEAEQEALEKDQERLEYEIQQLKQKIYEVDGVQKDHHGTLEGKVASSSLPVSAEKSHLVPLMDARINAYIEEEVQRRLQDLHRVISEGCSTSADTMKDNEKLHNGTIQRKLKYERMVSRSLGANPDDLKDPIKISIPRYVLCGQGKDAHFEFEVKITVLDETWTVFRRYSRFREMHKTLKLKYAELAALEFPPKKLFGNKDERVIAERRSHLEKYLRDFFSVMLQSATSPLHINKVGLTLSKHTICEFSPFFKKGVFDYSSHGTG
The data set is described as follows: biochemical. Also noted: ITC titration of soluble phosphoinositide headgroup analogue into PX domain, Kd. The text has this: We next used isothermal titration calorimetry (ITC) to measure the binding of selected PX domains to soluble phosphoinositide headgroup analogues (Supplementary Figures 2, 3; Supplementary Table 4). These experiments quantitatively supported the results of the liposome pelleting assays for all of the PX domains tested. As an orthogonal method of quantitation, we used biolayer interferometry (BLItz) to measure the interactions of PX proteins with different phosphoinositide-containing membranes (Supplementary Figures 4, 5; Supplementary Table 5). In these experiments, liposomes containing a small amount of biotinylated lipids were coupled to streptavidin sensors, and dipped into solutions containing the PX domains at a single concentration of 20 μM. Again, the results of these liposome-binding experiments using BLItz correlated well with both ITC and liposome pelleting assays. The dissociation constants derived from BLItz analyses were generally in agreement with those from ITC and correlated well with the qualitative interactions observed in pelleting assays. Supplementary Information Supplementary Table 1. Previously reported structures and PtdInsP-binding specificities of mammalian PX proteins. Supplementary Table 2. PX domain constructs used in this study. Supplementary Table 3. […] PX domain binding to phosphoinositides measured by ITC.

Data set [3] deals with the molecule itself. Briefly: SEC; analytical gel filtration, Superdex 200 10/300, 50 mM Tris (pH 8.0), 100 mM NaCl, 2 mM DTT; 100 µl of SNX15 PX domain at 500 µM, 0.5 ml/min, 4 °C; mass from a calibration curve of standards. (SEC sorts molecules by how far they enter the pores of the column.)

`CCCCCCCC(=O)OC[C@H](COP(=O)(O)O[C@H]1[C@H](O)[C@@H](O)[C@H](OP(=O)(O)O)[C@@H](OP(=O)(O)O)[C@H]1O)OC(=O)CCCCCCC` [PtdIns(3,4)P2 headgroup analogue]: the “1H-15N HSQC NMR titration” value at SNX25 PX domain [1] is “significant chemical shift perturbations were observed with di- and tri-phosphorylated phosphoinositides (PIP2 and PIP3)”.

Consider `CCCCCCCC(=O)OC[C@H](COP(=O)(O)O[C@H]1[C@H](O)[C@@H](OP(=O)(O)O)[C@H](OP(=O)(O)O)[C@@H](OP(=O)(O)O)[C@H]1O)OC(=O)CCCCCCC` [PtdIns(3,4,5)P3 headgroup analogue], for which, at SNX25 PX domain [1], the “1H-15N HSQC NMR titration” value is “significant chemical shift perturbations were observed with di- and tri-phosphorylated phosphoinositides (PIP2 and PIP3)”. On to `CCCCCCCC(=O)OC[C@H](COP(=O)(O)O[C@@H]1[C@H](O)[C@H](OP(=O)(O)O)[C@@H](O)[C@H](OP(=O)(O)O)[C@H]1O)OC(=O)CCCCCCC` [PtdIns(3,5)P2 headgroup analogue], for which the “1H-15N HSQC NMR titration” value at SNX25 PX domain [1] was “significant chemical shift perturbations were observed with di- and tri-phosphorylated phosphoinositides (PIP2 and PIP3)”. The Kd was 12.1 µM at SNX25 PX domain [2], 35.8 µM at SNX2, 42 µM on SNX1 and 11.5 µM at SNX23.

For `CCCCCCCC(=O)OC[C@H](COP(=O)(O)O[C@@H]1[C@H](O)[C@H](O)[C@@H](OP(=O)(O)O)[C@H](OP(=O)(O)O)[C@H]1O)OC(=O)CCCCCCC` [PtdIns(4,5)P2 headgroup analogue], at SNX25 PX domain [1], the “1H-15N HSQC NMR titration” value was “significant chemical shift perturbations were observed with di- and tri-phosphorylated phosphoinositides (PIP2 and PIP3)”.

B1: SNX15 PX domain (domain or fragment, human)
chain: MSRQAKDDFLRHYTVSDPRTHPKGYTEYKVTAQFISKKDPEDVKEVVVWKRYSDFRKLHGDLAYTHRNLFRRLEEFPAFPRAQVFGRFEASVIEERRKGAEDLLRFTVHIPALNNSPQLKEFFRGG
notes: source: E. coli BL21(DE3)/pLysS, purified (glutathione-Sepharose, thrombin cleavage, size exclusion chromatography); not shown: GST, N-terminal, cleaved
In the case of B1, in data set [3], the “stoichiometry N” value is 2.

One may read the Kd as the free concentration of one partner at which half of the binding sites on the other are occupied at equilibrium, for simple one-to-one binding. Low values mean tighter binding, high ones weaker binding. By stoichiometry N is commonly meant a count of units in the complex or per binding partner.
